Data taken from the NIST ThermoML archive (doi:10.1016/j.jct.2007.05.005).
Several values for one entry are separate records, joined by “and”; a condition that tells them apart may be missing. Equal entries are not always repeated. ± gives the expanded uncertainty stated by the source.

Assays:
[1] = 101.3 kPa, Liquid; for speed of sound: Sing-around technique in a fixed-path interferometer
[2] = xn = mol fraction of the nth substance listed; conditions: 101.3 kPa, Liquid, x2 = 0; for speed of sound: Sing-around technique in a fixed-path interferometer

| mass density ([1]; 288.15 K) | speed of sound ([1]; 288.15 K) | mass density ([1]; 298.15 K) | speed of sound ([1]; 298.15 K) | mass density ([1]; 323.15 K) | speed of sound ([1]; 323.15 K) | speed of sound ([2]; 323.15 K) | mass density ([2]; 323.15 K) | Compound | mass density ([1]; 303.15 K) | speed of sound ([1]; 303.15 K) | mass density ([1]; 313.15 K) | speed of sound ([1]; 313.15 K) | further results |
| --- | --- | --- | --- | --- | --- | --- | --- | --- | --- | --- | --- | --- | --- |
| – | – | – | – | – | – | 979.25 ± 2.2 m/s | 666.832 ± 1.3 kg/m3 | CC(C)CC(C)(C)C [2,2,4-trimethylpentane] + CCOC(C)(C)C | – | – | – | – | speed of sound ([2]; 288.15 K): 1124.3 ± 2.2 m/s; mass density ([2]; 288.15 K): 695.948 ± 1.2 kg/m3; speed of sound ([2]; 298.15 K): 1082.2 ± 2.2 m/s; mass density ([2]; 298.15 K): 687.749 ± 1.2 kg/m3 |
| – | – | – | – | 753.679 ± 1 kg/m3 | 1013 ± 2.2 m/s | – | – | CC(C)(C)O [2-methylpropan-2-ol] | 775.028 ± 0.98 kg/m3 | 1098.2 ± 2.2 m/s | 764.554 ± 1 kg/m3 | 1055.4 ± 2.2 m/s | – |
| – | – | – | – | – | – | 1013 ± 2.2 m/s | 753.679 ± 1 kg/m3 | CC(C)(C)O [2-methylpropan-2-ol] + CCOC(C)(C)C | – | – | – | – | speed of sound ([2]; 303.15 K): 1098.2 ± 2.2 m/s; mass density ([2]; 303.15 K): 775.028 ± 0.98 kg/m3; speed of sound ([2]; 313.15 K): 1055.4 ± 2.2 m/s; mass density ([2]; 313.15 K): 764.554 ± 1 kg/m3 |
| 884.183 ± 0.65 kg/m3 | 1345.5 ± 2.2 m/s | 873.52 ± 0.68 kg/m3 | 1298.3 ± 2.2 m/s | 846.641 ± 0.77 kg/m3 | 1184.6 ± 2.2 m/s | – | – | c1ccccc1 [benzene] | – | – | – | – | – |

The remaining lines, values behind:

| Compound | mass density ([1]; 288.15 K) | speed of sound ([1]; 288.15 K) | mass density ([1]; 298.15 K) | speed of sound ([1]; 298.15 K) | mass density ([1]; 323.15 K) | speed of sound ([1]; 323.15 K) | speed of sound ([2]; 323.15 K) | mass density ([2]; 323.15 K) | mass density ([1]; 303.15 K) | speed of sound ([1]; 303.15 K) | mass density ([1]; 313.15 K) | speed of sound ([1]; 313.15 K) | further results |
| --- | --- | --- | --- | --- | --- | --- | --- | --- | --- | --- | --- | --- | --- |
| CC(C)CC(C)(C)C [2,2,4-trimethylpentane] | 695.948 ± 1.2 kg/m3 | 1124.3 ± 2.2 m/s | 687.749 ± 1.2 kg/m3 | 1082.2 ± 2.2 m/s | 666.832 ± 1.3 kg/m3 | 979.25 ± 2.2 m/s | – | – | – | – | – | – | – |
| CCOC(C)(C)C [2-ethoxy-2-methylpropane] | 745.656 ± 1.1 kg/m3 and 744.955 ± 1.1 kg/m3 | 1078.9 ± 2.2 m/s and 1076.4 ± 2.2 m/s | 735.357 ± 1.1 kg/m3 and 734.806 ± 1.1 kg/m3 | 1033.2 ± 2.2 m/s and 1031 ± 2.2 m/s | 709.007 ± 1.2 kg/m3 and 708.642 ± 1.2 kg/m3 and 708.996 ± 1.2 kg/m3 | 922.48 ± 2.2 m/s and 920.73 ± 2.2 m/s and 922.08 ± 2.2 m/s | – | – | 730.186 ± 1.1 kg/m3 | 1010.2 ± 2.2 m/s | 719.687 ± 1.2 kg/m3 | 965.87 ± 2.2 m/s | – |
